Measured values as given in patent publication US20240228493A1, “LRRK2 INHIBITORS AND USES THEREOF” (NEURON23, ICN., priority 2022, published 2024).

Columns and labels:
[1] = Human liver microsomal clearance (hLM Cl); assay type: in vitro ADME; conditions: values marked *: human liver microsomal Clearance
[2] = tested on: Caco-2 cells; assay: Caco-2 bidirectional permeability; assay type: in vitro ADME; conditions: for Caco-2 ER: Efflux Ratio=Papp(BA)/Papp(AB); for Caco-2 A2B (10^−6 cm/s): apical to basolateral; for Caco-2 A2B (10^−6 cm/s) / Caco-2 B2A (10^−6 cm/s): 2 hours, pH 7.4; for Caco-2 B2A (10^−6 cm/s): basolateral to apical
Outline: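 Caco-2 monolayers were grown 21–28 days on PET inserts and run in duplicate in HBSS with 10 mM HEPES, pH 7.4. Test compound was dosed bidirectionally at […] for 2 h at 37 °C; quantification was by LC-MS/MS. Papp and efflux ratio (B-A/A-B) were calculated, with lucifer yellow monolayer integrity checks.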

[3] = target: T1, wt human LRRK2, catalytic site (Homo sapiens, UniProt Q5S007); assay: TR-FRET LanthaScreen Tb Kinase Activity Assay, LRRK2 inhibition; assay type: biochemical; conditions: 2 nM wt human LRRK2, 400 nM peptide, 38 μM ATP
T1 construct: wt human LRRK2, catalytic site, catalytic site (ThermoFisher/USA); purchased ThermoFisher
T1 sequence (Q5S007 1879-2138 limits assumed): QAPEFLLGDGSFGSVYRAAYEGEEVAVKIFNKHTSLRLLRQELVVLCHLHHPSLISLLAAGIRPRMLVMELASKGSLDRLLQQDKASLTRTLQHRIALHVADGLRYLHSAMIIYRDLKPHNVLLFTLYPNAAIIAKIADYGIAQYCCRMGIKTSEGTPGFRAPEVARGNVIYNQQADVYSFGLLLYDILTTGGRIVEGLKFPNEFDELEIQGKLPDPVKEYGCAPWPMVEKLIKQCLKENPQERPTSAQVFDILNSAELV
Outline: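 Fluorescein-ERM (LRRKtide) peptide (400 nM) phosphorylated by 2 nM wt human LRRK2 catalytic site with 38 μM ATP in 1× Kinase Buffer A, 120 min at room temperature after 15 min compound–kinase preincubation. EDTA plus Tb-anti-pLRRKtide antibody added, read after 60 min; inhibition from TR-FRET emission ratios.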

| SMILES | Caco-2 ER [2] | Caco-2 B2A (10^−6 cm/s) [2] | IC50 [3] [nM] | hLM Cl (mL/min/kg) [1] | Caco-2 A2B (10^−6 cm/s) [2] |
| --- | --- | --- | --- | --- | --- |
| Cc1n[nH]c2c1N=C(c1c(F)cccc1F)Nc1cnc(N3CCC[C@@](C)(C#N)C3)cc1-2 (single isomer, unassigned) [Example 12] | L (L (Likely)”: ER≥2.5) | H (H (High permeability)”: A2B (B2A)>5) | < 1 | L* (L (Low Cl)”: Hep Cl (mL/min/kg)<6.3) | M (M (Moderate permeability)”: 1≤A2B (B2A)≤5) |
| Cc1n[nH]c2c1N=C(c1c(F)cccc1F)Nc1cnc(N3CCC(C)(C#N)CC3)cc1-2 [Example 17, 1-[8-(2,6-difluorophenyl)-5-methyl-3,4,7,9,12-pentazatricyclo[8.4.0.02,6]tetradeca-1(10),2(6),4,7,11,13-hexaen-13-y1]-4-methyl-piperidine-4-carbonitrile] | L (L (Likely)”: ER≥2.5) | H (H (High permeability)”: A2B (B2A)>5) | 1 to 100 | I* (I (Intermediate Cl)”: 6.3≤Hep Cl (mL/min/kg)≤14.7) | H (H (High permeability)”: A2B (B2A)>5) |
| Cc1n[nH]c2c1N=C(c1c(F)cccc1F)Nc1c-2cc(N2CCN(CCCF)CC2)nc1C [Example 32, 8-(2,6-difluorophenyl)-13-[4-(3-fluoropropyl)piperazin-1-y1]-5,11-dimethyl-3,4,7,9,12-pentazatricyclo[8.4.0.02,6]tetradeca-1(10),2(6),4,7,11,13-hexaene] | L (L (Likely)”: ER≥2.5) | H (H (High permeability)”: A2B (B2A)>5) | < 1 | L* (L (Low Cl)”: Hep Cl (mL/min/kg)<6.3) | M (M (Moderate permeability)”: 1≤A2B (B2A)≤5) |
| Cc1n[nH]c2c1N=C(c1c(F)cccc1F)Nc1c-2cc(N2CCOC3(COC3)C2)nc1C [Example 38, 8-(5-(2,6-difluorophenyl)-3,7-dimethyl-1,6-dihydropyrazolo[4,3-d]pyrido[4,3-f][1,3]diazepin-9-yl)-2,5-dioxa-8-azaspiro[3.5]nonane] | L (L (Likely)”: ER≥2.5) | H (H (High permeability)”: A2B (B2A)>5) | < 1 | L* (L (Low Cl)”: Hep Cl (mL/min/kg)<6.3) | M (M (Moderate permeability)”: 1≤A2B (B2A)≤5) |
| Cc1n[nH]c2c1N=C(c1c(F)cccc1F)Nc1cnc(N3CCC4(CC3)COC4)cc1-2 [Example 42, 7-(5-(2,6-difluorophenyl)-3-methyl-1,6-dihydropyrazolo[4,3-d]pyrido[4,3-f][1,3]diazepin-9-yl)-2-oxa-7-azaspiro[3.5]nonane] | L (L (Likely)”: ER≥2.5) | H (H (High permeability)”: A2B (B2A)>5) | 1 to 100 | L* (L (Low Cl)”: Hep Cl (mL/min/kg)<6.3) | M (M (Moderate permeability)”: 1≤A2B (B2A)≤5) |
| Cc1nc(N2CC3(COC3)C2)cc2c1NC(c1c(F)cccc1F)=Nc1cn[nH]c1-2 [Example 43, 6-(5-(2,6-difluorophenyl)-7-methyl-1,6-dihydropyrazolo[4,3-d]pyrido[4,3-f][1,3]diazepin-9-y1)-2-oxa-6-azaspiro[3.3]heptane] | L (L (Likely)”: ER≥2.5) | H (H (High permeability)”: A2B (B2A)>5) | 1 to 100 | L* (L (Low Cl)”: Hep Cl (mL/min/kg)<6.3) | M (M (Moderate permeability)”: 1≤A2B (B2A)≤5) |

The next lines start with results.

| Caco-2 ER [2] | Caco-2 B2A (10^−6 cm/s) [2] | IC50 [3] [nM] | SMILES | hLM Cl (mL/min/kg) [1] | Caco-2 A2B (10^−6 cm/s) [2] |
| --- | --- | --- | --- | --- | --- |
| L (L (Likely)”: ER≥2.5) | H (H (High permeability)”: A2B (B2A)>5) | < 1 | Fc1cccc(F)c1C1=Nc2cn[nH]c2-c2cc(N3CC[C@@H](C(F)F)C3)ncc2N1 (single isomer, unassigned) [Example 34] | I* (I (Intermediate Cl)”: 6.3≤Hep Cl (mL/min/kg)≤14.7) | M (M (Moderate permeability)”: 1≤A2B (B2A)≤5) |
| L (L (Likely)”: ER≥2.5) | H (H (High permeability)”: A2B (B2A)>5) | 1 to 100 | Cc1n[nH]c2c1N=C(c1c(F)cccc1F)Nc1c-2cc(N2CCO[C@H]([C@@H](C)O)C2)nc1C [Example 45, (R)-1-((S)-4-(5-(2,6-difluorophenyl)-3,7-dimethyl-1,6-dihydropyrazolo[4,3-d]pyrido[4,3-f][1,3]diazepin-9-yl)morpholin-2-yl)ethan-1-ol] | L* (L (Low Cl)”: Hep Cl (mL/min/kg)<6.3) | L (L (Low permeability)”: A2B (B2A)<1) |
| L (L (Likely)”: ER≥2.5) | H (H (High permeability)”: A2B (B2A)>5) | < 1 | Cc1n[nH]c2c1N=C(c1c(F)cccc1F)Nc1c-2cc(N2CCS(=O)(=O)CC2)nc1C [Example 46, 4-(5-(2,6-difluorophenyl)-3,7-dimethyl-1,6-dihydropyrazolo[4,3-d]pyrido[4,3-f][1,3]diazepin-9-yl)thiomorpholine 1,1-dioxide] | L* (L (Low Cl)”: Hep Cl (mL/min/kg)<6.3) | L (L (Low permeability)”: A2B (B2A)<1) |
| L (L (Likely)”: ER≥2.5) | H (H (High permeability)”: A2B (B2A)>5) | 1 to 100 | Cc1n[nH]c2c1N=C(c1c(F)cccc1F)Nc1cnc(N3CCC(C#N)CC3)cc1-2 [Example 48, 1-(5-(2,6-difluorophenyl)-3-methyl-1,6-dihydropyrazolo[4,3-d]pyrido[4,3-f][1,3]diazepin-9-yl)piperidine-4-carbonitrile] | I* (I (Intermediate Cl)”: 6.3≤Hep Cl (mL/min/kg)≤14.7) | M (M (Moderate permeability)”: 1≤A2B (B2A)≤5) |
